Reference: ChEMBL document CHEMBL4507278 (2021)

Tests used:
[1] = target: Serine/threonine-protein kinase PLK2 (Homo sapiens) (UniProt Q9NYY3); details: Compound concentration 1000.0 nM
[2] = target: Tyrosine-protein kinase SYK (Homo sapiens) (UniProt P43405); details: Compound concentration 1000.0 nM
[3] = target: Mitogen-activated protein kinase kinase kinase 19 (Homo sapiens) (UniProt Q56UN5); details: Compound concentration 1000.0 nM
[4] = target: Aurora kinase C (Homo sapiens) (UniProt Q9UQB9); details: Compound concentration 1000.0 nM
[5] = target: Ephrin type-A receptor 8 (Homo sapiens) (UniProt P29322); details: Compound concentration 1000.0 nM
[6] = target: Ribosomal protein S6 kinase alpha-3 (Homo sapiens) (UniProt P51812); details: Compound concentration 1000.0 nM
Ribosomal protein S6 kinase alpha-3 (Homo sapiens), sequence (P51812 whole entry): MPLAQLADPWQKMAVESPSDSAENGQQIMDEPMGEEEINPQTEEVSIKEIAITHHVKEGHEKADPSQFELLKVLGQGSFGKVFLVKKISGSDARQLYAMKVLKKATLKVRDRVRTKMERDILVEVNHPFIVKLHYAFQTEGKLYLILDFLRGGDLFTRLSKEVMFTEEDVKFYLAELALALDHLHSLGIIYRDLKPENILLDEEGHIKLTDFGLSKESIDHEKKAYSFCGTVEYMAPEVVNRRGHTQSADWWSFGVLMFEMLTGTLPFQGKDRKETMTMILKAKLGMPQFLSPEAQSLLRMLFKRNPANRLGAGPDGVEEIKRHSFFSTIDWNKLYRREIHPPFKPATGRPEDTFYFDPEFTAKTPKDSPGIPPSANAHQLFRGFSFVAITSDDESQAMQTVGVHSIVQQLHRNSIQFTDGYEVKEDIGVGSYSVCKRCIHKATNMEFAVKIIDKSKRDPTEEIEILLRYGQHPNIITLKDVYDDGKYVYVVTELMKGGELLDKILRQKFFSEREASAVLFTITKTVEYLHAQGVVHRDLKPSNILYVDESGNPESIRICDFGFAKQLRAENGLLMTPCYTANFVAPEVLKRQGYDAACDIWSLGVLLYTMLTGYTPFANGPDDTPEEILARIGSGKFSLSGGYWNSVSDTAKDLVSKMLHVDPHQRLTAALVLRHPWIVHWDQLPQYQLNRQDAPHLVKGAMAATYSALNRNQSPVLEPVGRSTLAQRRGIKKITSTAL

[7] = target: Hepatocyte growth factor receptor (Homo sapiens) (UniProt P08581); details: Compound concentration 1000.0 nM
[8] = target: Serine/threonine-protein kinase ULK3 (Homo sapiens) (UniProt Q6PHR2); details: Compound concentration 1000.0 nM
[9] = target: Mitogen-activated protein kinase 7 (Homo sapiens) (UniProt Q13164); details: Compound concentration 1000.0 nM
[10] = target: Myosin-IIIb (Homo sapiens) (UniProt Q8WXR4); details: Compound concentration 1000.0 nM
[11] = target: Protein-tyrosine kinase 2-beta (Homo sapiens) (UniProt Q14289); details: Compound concentration 1000.0 nM
[12] = target: Casein kinase II subunit alpha' (Homo sapiens) (UniProt P19784); details: Compound concentration 1000.0 nM
Casein kinase II subunit alpha' (Homo sapiens), sequence (P19784 whole entry, looked up): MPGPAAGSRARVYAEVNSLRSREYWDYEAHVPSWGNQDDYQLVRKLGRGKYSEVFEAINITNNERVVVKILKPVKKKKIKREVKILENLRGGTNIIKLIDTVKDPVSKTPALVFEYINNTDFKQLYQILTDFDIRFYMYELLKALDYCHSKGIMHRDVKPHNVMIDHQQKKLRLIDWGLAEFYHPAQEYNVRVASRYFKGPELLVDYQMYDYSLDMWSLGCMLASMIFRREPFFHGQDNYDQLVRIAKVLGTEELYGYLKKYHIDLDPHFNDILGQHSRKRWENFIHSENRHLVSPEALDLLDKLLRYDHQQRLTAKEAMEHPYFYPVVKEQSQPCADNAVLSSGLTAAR

[13] = target: Serine/threonine-protein kinase pim-2 (Homo sapiens) (UniProt Q9P1W9); details: Compound concentration 1000.0 nM
[14] = system: Epidermal growth factor receptor (Homo sapiens), P00533 [UNDEFINED MUTATION]; details: Compound concentration 1000.0 nM
Epidermal growth factor receptor (Homo sapiens), P00533 [UNDEFINED MUTATION], sequence (P00533 whole entry, looked up, stated change not applied, canonical isoform): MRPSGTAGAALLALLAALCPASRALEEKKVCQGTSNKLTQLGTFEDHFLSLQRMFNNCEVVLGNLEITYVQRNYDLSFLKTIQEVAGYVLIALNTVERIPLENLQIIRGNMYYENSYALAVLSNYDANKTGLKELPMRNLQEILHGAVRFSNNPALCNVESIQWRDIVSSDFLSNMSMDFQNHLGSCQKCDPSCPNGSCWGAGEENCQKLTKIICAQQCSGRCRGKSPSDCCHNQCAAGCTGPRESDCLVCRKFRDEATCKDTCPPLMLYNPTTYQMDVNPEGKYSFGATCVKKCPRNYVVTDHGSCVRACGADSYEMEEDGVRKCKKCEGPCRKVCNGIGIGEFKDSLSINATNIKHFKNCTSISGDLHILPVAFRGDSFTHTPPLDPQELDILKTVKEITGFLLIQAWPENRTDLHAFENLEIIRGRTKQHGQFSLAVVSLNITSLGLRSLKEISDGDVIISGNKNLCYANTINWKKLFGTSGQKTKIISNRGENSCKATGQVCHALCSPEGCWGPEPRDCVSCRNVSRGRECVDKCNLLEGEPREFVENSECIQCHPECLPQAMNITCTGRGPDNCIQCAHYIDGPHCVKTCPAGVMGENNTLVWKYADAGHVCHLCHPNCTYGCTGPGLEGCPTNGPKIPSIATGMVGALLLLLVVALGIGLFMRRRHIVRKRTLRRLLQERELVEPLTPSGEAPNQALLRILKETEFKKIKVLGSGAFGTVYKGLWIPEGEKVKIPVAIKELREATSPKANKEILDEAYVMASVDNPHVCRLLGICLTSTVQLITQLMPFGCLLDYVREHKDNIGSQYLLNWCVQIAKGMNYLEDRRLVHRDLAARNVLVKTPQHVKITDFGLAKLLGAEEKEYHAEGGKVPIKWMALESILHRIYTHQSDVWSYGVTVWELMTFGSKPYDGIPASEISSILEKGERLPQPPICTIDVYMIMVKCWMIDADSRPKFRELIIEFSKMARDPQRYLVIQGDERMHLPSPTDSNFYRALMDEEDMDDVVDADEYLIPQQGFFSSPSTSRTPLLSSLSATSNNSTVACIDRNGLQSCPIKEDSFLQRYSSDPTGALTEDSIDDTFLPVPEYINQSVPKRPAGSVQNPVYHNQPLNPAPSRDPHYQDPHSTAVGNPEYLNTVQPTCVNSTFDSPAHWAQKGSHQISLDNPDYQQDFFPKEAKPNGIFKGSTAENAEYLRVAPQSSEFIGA

[15] = target: RAC-alpha serine/threonine-protein kinase (Homo sapiens) (UniProt P31749); details: Compound concentration 1000.0 nM
[16] = target: cGMP-dependent protein kinase 2 (Homo sapiens) (UniProt Q13237); details: Compound concentration 1000.0 nM
cGMP-dependent protein kinase 2 (Homo sapiens), sequence (Q13237 whole entry, the tested form may be a part): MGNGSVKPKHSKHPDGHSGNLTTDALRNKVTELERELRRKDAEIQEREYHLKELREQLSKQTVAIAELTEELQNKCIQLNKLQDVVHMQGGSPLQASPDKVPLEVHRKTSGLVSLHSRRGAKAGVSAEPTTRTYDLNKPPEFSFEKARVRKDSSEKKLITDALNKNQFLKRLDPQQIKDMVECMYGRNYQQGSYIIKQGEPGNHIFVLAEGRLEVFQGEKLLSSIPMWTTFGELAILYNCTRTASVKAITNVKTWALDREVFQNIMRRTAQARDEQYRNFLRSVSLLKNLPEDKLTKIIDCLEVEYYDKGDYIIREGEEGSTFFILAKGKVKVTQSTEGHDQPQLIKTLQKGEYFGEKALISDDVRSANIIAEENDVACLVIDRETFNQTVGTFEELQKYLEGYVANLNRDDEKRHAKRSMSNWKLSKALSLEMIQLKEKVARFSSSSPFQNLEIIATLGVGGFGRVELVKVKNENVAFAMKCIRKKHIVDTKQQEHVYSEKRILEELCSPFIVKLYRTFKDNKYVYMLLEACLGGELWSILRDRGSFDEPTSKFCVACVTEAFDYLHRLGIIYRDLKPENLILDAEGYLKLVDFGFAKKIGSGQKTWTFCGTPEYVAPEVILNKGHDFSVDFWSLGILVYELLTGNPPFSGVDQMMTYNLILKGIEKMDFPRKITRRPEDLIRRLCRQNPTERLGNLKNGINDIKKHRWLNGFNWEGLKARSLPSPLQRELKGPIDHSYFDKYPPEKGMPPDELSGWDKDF

[17] = target: Phosphatidylinositol 4-phosphate 3-kinase C2 domain-containing subunit beta (Homo sapiens) (UniProt O00750); details: Compound concentration 1000.0 nM
[18] = target: Alpha-1A adrenergic receptor (Homo sapiens) (UniProt P35348); details: Compound concentration 10.0 uM
[19] = target: Receptor tyrosine-protein kinase erbB-2 (Homo sapiens) (UniProt P04626); details: Compound concentration 1000.0 nM
[20] = target: Myosin light chain kinase family member 4 (Homo sapiens) (UniProt Q86YV6); details: Compound concentration 1000.0 nM
[21] = target: Mitogen-activated protein kinase kinase kinase kinase 1 (Homo sapiens) (UniProt Q92918); details: Compound concentration 1000.0 nM
[22] = target: Ribosomal protein S6 kinase alpha-3 (Homo sapiens) (UniProt P51812); details: Compound concentration 1000.0 nM; remark: listed apart in the source
[23] = target: BMP-2-inducible protein kinase (Homo sapiens) (UniProt Q9NSY1); details: Compound concentration 1000.0 nM
[24] = target: Ribosomal protein S6 kinase alpha-6 (Homo sapiens) (UniProt Q9UK32); details: Compound concentration 1000.0 nM
[25] = system: Epidermal growth factor receptor (Homo sapiens), P00533 [UNDEFINED MUTATION]; details: Compound concentration 1000.0 nM; remark: listed apart in the source
[26] = target: Muscle, skeletal receptor tyrosine-protein kinase (Homo sapiens) (UniProt O15146); details: Compound concentration 1000.0 nM
[27] = target: Serine/threonine-protein kinase Nek11 (Homo sapiens) (UniProt Q8NG66); details: Compound concentration 1000.0 nM
[28] = target: 3-phosphoinositide-dependent protein kinase 1 (Homo sapiens) (UniProt O15530); details: Compound concentration 1000.0 nM
[29] = target: Serine/threonine-protein kinase RIO3 (Homo sapiens) (UniProt O14730); details: Compound concentration 1000.0 nM
[30] = target: Phosphatidylinositol 4-phosphate 5-kinase type-1 gamma (Homo sapiens) (UniProt O60331); details: Compound concentration 1000.0 nM
[31] = target: Vascular endothelial growth factor receptor 1 (Homo sapiens) (UniProt P17948); details: Compound concentration 1000.0 nM
[32] = system: Epidermal growth factor receptor (Homo sapiens), P00533 [UNDEFINED MUTATION]; details: Compound concentration 1000.0 nM; remark: listed apart in the source
[33] = system: Phosphatidylinositol 4,5-bisphosphate 3-kinase catalytic subunit alpha isoform (Homo sapiens), P42336 [I800L]; details: Compound concentration 1000.0 nM
[34] = system: Tyrosine-protein kinase ABL1 (Homo sapiens), P00519 [T315I]; details: Compound concentration 1000.0 nM
[35] = target: Tyrosine-protein kinase JAK3 (Homo sapiens) (UniProt P52333); details: Compound concentration 1000.0 nM
[36] = target: Protein kinase C iota type (Homo sapiens) (UniProt P41743); details: Compound concentration 1000.0 nM
[37] = target: Kappa-type opioid receptor (Homo sapiens) (UniProt P41145); details: Compound concentration 10.0 uM
[38] = system: Tyrosine-protein kinase ABL1 (Homo sapiens), P00519 [F317L]; details: Compound concentration 1000.0 nM
[39] = target: Dual specificity tyrosine-phosphorylation-regulated kinase 2 (Homo sapiens) (UniProt Q92630); details: Compound concentration 1000.0 nM
[40] = target: Serine/threonine-protein kinase 25 (Homo sapiens) (UniProt O00506); details: Compound concentration 1000.0 nM
[41] = target: SRSF protein kinase 2 (Homo sapiens) (UniProt P78362); details: Compound concentration 1000.0 nM
[42] = system: Hepatocyte growth factor receptor (Homo sapiens), P08581 [M1250T]; details: Compound concentration 1000.0 nM
[43] = target: Histamine H3 receptor (Homo sapiens) (UniProt Q9Y5N1); details: Compound concentration 10.0 uM
[44] = target: SNF-related serine/threonine-protein kinase (Homo sapiens) (UniProt Q9NRH2); details: Compound concentration 1000.0 nM
[45] = target: Atypical kinase COQ8A, mitochondrial (Homo sapiens) (UniProt Q8NI60); details: Compound concentration 1000.0 nM

Serine/threonine-protein kinase PLK2 (Homo sapiens), sequence (Q9NYY3 whole entry, looked up): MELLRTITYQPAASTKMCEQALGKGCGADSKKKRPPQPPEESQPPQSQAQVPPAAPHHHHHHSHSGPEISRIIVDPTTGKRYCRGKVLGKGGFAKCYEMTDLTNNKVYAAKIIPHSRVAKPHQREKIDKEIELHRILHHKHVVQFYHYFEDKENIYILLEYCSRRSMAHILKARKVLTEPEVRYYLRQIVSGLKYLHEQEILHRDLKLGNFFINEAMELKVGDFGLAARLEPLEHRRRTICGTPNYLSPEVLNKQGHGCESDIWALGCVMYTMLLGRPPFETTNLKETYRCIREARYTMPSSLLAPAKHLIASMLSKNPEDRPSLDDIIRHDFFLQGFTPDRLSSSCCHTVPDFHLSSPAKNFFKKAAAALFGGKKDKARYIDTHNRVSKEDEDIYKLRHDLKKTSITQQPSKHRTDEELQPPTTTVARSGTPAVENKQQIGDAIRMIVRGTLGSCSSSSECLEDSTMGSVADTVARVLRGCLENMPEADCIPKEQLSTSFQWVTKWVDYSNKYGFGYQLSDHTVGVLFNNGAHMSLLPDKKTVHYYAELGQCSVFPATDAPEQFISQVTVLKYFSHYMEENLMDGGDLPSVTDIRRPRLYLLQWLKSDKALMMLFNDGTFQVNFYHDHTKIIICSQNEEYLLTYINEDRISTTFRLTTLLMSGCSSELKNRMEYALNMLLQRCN
Mitogen-activated protein kinase kinase kinase 19 (Homo sapiens), sequence (Q56UN5 whole entry): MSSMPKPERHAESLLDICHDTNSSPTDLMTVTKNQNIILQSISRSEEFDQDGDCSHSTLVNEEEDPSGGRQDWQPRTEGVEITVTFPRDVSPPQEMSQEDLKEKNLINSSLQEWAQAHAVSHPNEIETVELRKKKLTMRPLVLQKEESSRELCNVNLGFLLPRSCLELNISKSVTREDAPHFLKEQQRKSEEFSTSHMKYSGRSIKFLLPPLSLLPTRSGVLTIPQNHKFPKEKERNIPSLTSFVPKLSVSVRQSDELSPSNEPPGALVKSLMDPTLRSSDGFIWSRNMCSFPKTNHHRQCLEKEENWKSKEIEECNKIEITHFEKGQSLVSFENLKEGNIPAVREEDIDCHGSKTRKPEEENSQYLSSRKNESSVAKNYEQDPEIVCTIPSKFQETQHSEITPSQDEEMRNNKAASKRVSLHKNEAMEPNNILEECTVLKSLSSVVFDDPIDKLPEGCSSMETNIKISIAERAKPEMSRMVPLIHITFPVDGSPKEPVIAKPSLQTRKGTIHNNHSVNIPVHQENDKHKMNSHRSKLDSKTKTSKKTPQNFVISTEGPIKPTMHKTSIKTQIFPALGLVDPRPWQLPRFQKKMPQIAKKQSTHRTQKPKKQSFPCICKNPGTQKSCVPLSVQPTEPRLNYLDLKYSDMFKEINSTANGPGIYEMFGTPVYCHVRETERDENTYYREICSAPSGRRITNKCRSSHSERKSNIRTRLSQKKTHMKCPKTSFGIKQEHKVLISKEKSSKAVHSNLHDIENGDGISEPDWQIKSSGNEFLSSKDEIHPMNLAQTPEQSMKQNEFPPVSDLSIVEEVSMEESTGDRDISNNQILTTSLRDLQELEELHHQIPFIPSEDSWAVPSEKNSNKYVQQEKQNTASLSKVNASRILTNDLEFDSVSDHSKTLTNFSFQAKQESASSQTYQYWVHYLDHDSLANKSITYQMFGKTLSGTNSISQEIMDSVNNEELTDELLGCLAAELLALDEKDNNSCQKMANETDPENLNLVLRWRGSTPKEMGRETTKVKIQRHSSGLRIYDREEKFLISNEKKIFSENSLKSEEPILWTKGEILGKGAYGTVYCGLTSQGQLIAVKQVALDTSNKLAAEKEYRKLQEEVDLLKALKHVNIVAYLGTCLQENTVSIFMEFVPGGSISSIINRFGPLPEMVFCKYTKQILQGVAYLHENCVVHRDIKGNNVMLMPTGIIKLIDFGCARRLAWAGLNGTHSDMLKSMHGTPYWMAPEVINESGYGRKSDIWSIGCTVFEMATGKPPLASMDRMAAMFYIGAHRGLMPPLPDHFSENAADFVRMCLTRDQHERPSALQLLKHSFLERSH

CS(=O)(=O)c1cc(C2(NC(=O)c3cncc4c3cnn4-c3ccc(F)cc3)CC2)ccn1 [BI 639667]
inactive: residual activity [1] 70% | residual activity [2] 100% | residual activity [3] 91% | residual activity [4] 100% | residual activity [5] 99% | residual activity [6] 99% | residual activity [7] 100% | residual activity [8] 100% | residual activity [9] 75% | residual activity [10] 100% | residual activity [11] 100% | residual activity [12] 80% | residual activity [13] 100% | residual activity [14] 98% | residual activity [15] 100% | residual activity [16] 89% | residual activity [17] 84% | inhibition [18] -7.71% | residual activity [19] 100% | residual activity [20] 85% | residual activity [21] 89% | residual activity [22] 100% | residual activity [23] 89% | residual activity [24] 97% | residual activity [25] 100% | residual activity [26] 68% | residual activity [27] 100% | residual activity [28] 100% | residual activity [29] 100% | residual activity [30] 95% | residual activity [31] 100% | residual activity [32] 100% | residual activity [33] 68% | residual activity [34] 75% | residual activity [35] 75% | residual activity [36] 100% | inhibition [37] 1.68% | residual activity [38] 68% | residual activity [39] 95% | residual activity [40] 100% | residual activity [41] 100% | residual activity [42] 82% | inhibition [43] 29.6% | residual activity [44] 88% | residual activity [45] 100%

CS(=O)(=O)NCC[C@H](NC(=O)c1cncc2c1cnn2-c1ccc(F)cc1)c1ccnc(S(C)(=O)=O)c1 [BI 9307]
inactive: residual activity [1] 100% | residual activity [2] 100% | residual activity [3] 98% | residual activity [4] 92% | residual activity [5] 100% | residual activity [6] 100% | residual activity [7] 79% | residual activity [8] 100% | residual activity [9] 100% | residual activity [10] 100% | residual activity [11] 84% | residual activity [12] 100% | residual activity [13] 86% | residual activity [14] 100% | residual activity [15] 100% | residual activity [16] 87% | residual activity [17] 78% | inhibition [18] -3.82% | residual activity [19] 100% | residual activity [20] 100% | residual activity [21] 95% | residual activity [22] 98% | residual activity [23] 92% | residual activity [24] 99% | residual activity [25] 92% | residual activity [26] 100% | residual activity [27] 100% | residual activity [28] 100% | residual activity [29] 100% | residual activity [30] 78% | residual activity [31] 90% | residual activity [32] 100% | residual activity [33] 61% | residual activity [34] 93% | residual activity [35] 100% | residual activity [36] 100% | inhibition [37] 0.74% | residual activity [38] 69% | residual activity [39] 91% | residual activity [40] 78% | residual activity [41] 100% | residual activity [42] 88% | inhibition [43] 18.9% | residual activity [44] 100% | residual activity [45] 95%
